Article PMC12652692, “Synthesis and In Vitro Anticancer Evaluation of Novel Phosphonium Derivatives of Chrysin” (International Journal of Molecular Sciences, 2025)

Columns and labels:
Experiment in all cases: NCI60 one-dose screen
Type in all cases: cell-based
OVCAR-4 = settings: Homo sapiens; OVCAR-4, 10 μM; read-out: Growth percent
Protocol: (§1) The screening results are presented in the Supplementary Materials (Table S1), where the cytotoxicity was determined for the 10 µM concentration. […] The negative numbers indicate significant decreases in the cell number. […] Compared to the reference chrysin (2), all phosphonium hybrids (3a–h) had significant antiproliferative activities. […] At the same time, it should be noted that more than 60% average reduction was also obtained in the case of the other examined conjugates (3a–h).
(§2) A detailed description of the NCI screening procedures, including the one-dose and five-dose tests, can be found in the Supplementary Materials, on the website of NCI [39], and in our previous work.
(§3) A detailed description of the NCI screening procedures can also be found on the website of NCI [39], and in our […]
(§4) All candidates were examined at first at a single high dose (10 μM) in the full NCI60 cell panel. The value reported for the one-dose test is growth relative to the no-drug control and relative to the time zero number of cells. This made possible the disclosure of both growth inhibition (numbers between 0 and 100) and lethality (numbers less than 0). For example, a value of 100 means no growth inhibition. A value of 20 would mean 80% growth inhibition. A value of 0 means no net growth over the course of the analysis. A value of −20 would mean 20% lethality. A value of −100 means all cells are dead. […]
(§5) concentration levels. The human tumor cell lines of the cancer screening panel were grown in RPMI 1640 medium containing 5% fetal bovine serum and 2 mM l-glutamine. Characteristically, cells were injected in 96-well microtiter plates in 0.1 mL at plating densities ranging from 5000 to 40,000 cells/well, depending on the doubling time of individual cell lines. After cell inoculation, the microtiter plates were incubated at 37 °C, 5% carbon dioxide, 95% air, and 100% relative humidity for 24 hours before the addition of tested compounds. After 24 hours, 2 plates of each cell line were fixed in situ with Cl3COOH (TCA), to represent a measurement of the cell population for each cell line at the time of drug addition (tz). Tested compounds were solubilized in DMSO at 400-fold the desired final maximum test concentration and stored frozen before application. In the course of the drug addition, an aliquot of frozen concentrate was thawed and diluted to twice the desired final maximum test concentration with a complete medium containing 50 μg mL−1 gentamicin. Additional four, 10-fold or ½ log serial dilutions were produced to furnish a total of five drug concentrations plus control. Aliquots of 0.1 mL of these different drug dilutions were added to the appropriate microtiter wells already containing 0.1 mL of medium, resulting in the required final drug concentrations.
(§6) Following drug addition, the plates were incubated at 37 °C, 5% carbon dioxide, 95% air, and 100% relative humidity for an additional 48 hours. For adherent cells, the test was finished by the addition of cold Cl3COOH. Cells were fixed in situ by the addition of 50 μL of cold 50% (w/v) Cl3COOH, and incubated at 4 °C for 1 hour. The supernatant was discarded, and the plates were washed with H2O (5×) and dried in air. Sulforhodamine B (SRB) solution (0.1 mL) at 0.4% (w/v) in 1% CH3COOH was added to each well, and plates were incubated at RT for 10 min. After staining, the unbound dye was removed by washing five times with 1% CH3COOH, and the plates were dried in the air. The bound stain is afterward solubilized with a 10 mM trizma base, and the absorbance is read on an automated plate reader at λ = 515 nm. Utilizing the seven absorbance measurements [time zero (tz), control growth (c), and test growth in the presence of the drug at the five concentration levels (ti)], the percentage growth was determined at each of the drug concentration levels. Growth inhibition (%) was calculated as:
(§7) [(ti − tz)/(c − tz)] × 100, for concentrations where ti ≥ tz (1) […]

COLO 205 = settings: Homo sapiens; COLO 205, 10 μM; read-out: Growth percent
Protocol: as §1, §2, §3, §4, §5, §6, §7

SK-MEL-28 = settings: Homo sapiens; SK-MEL-28, 10 μM; read-out: Growth percent
Protocol: as §1, §2, §3, §4, §5, §6, §7

MDA-MB-468 = settings: Homo sapiens; MDA-MB-468, 10 μM; read-out: Growth percent
Protocol: as §1, §2, §3, §4, §5, §6, §7

SW-620 = settings: Homo sapiens; SW-620, 10 μM; read-out: Growth percent
Protocol: as §1, §2, §3, §4, §5, §6, §7

HCC-2998 = settings: Homo sapiens; HCC-2998, 10 μM; read-out: Growth percent
Protocol: as §1, §2, §3, §4, §5, §6, §7

K-562 = settings: Homo sapiens, K562; K-562, 10 μM; read-out: Growth percent
Protocol: as §1, §2, §3, §4, §5, §6, §7

MALME-3M = settings: Homo sapiens, read-out: Growth percent
Protocol: as §1, §2, §3, §4, §5, §6, §7

BT-549 = settings: Homo sapiens; BT-549, 10 μM; read-out: Growth percent
Protocol: as §1, §2, §3, §4, §5, §6, §7

SNB-75 = settings: Homo sapiens; SNB-75, 10 μM; read-out: Growth percent
Protocol: as §1, §2, §3, §4, §5, §6, §7

HL-60(TB) = settings: Homo sapiens, read-out: Growth percent
Protocol: as §1, §2, §3, §4, §5, §6, §7

SN12C = settings: Homo sapiens, read-out: Growth percent
Protocol: as §1, §2, §3, §4, §5, §6, §7

SF-539 = settings: Homo sapiens; SF-539, 10 μM; read-out: Growth percent
Protocol: as §1, §2, §3, §4, §5, §6, §7

UO-31 = settings: Homo sapiens; UO-31, 10 μM; read-out: Growth percent
Protocol: as §1, §2, §3, §4, §5, §6, §7

U251 = settings: Homo sapiens, U-251; U251, 10 μM; read-out: Growth percent
Protocol: as §1, §2, §3, §4, §5, §6, §7

CCRF-CEM = settings: Homo sapiens, read-out: Growth percent
Protocol: as §1, §2, §3, §4, §5, §6, §7

UACC-257 = settings: Homo sapiens; UACC-257, 10 μM; read-out: Growth percent
Protocol: as §1, §2, §3, §4, §5, §6, §7

MCF7 = settings: Homo sapiens; MCF7, 10 μM; read-out: Growth percent
Protocol: as §1, §2, §3, §4, §5, §6, §7

KM12 = settings: Homo sapiens; KM12, 10 μM; read-out: Growth percent
Protocol: as §1, §2, §3, §4, §5, §6, §7

HCT-116 = settings: Homo sapiens; HCT-116, 10 μM; read-out: Growth percent
Protocol: as §1, §2, §3, §4, §5, §6, §7

RXF 393 = settings: Homo sapiens; RXF 393, 10 μM; read-out: Growth percent
Protocol: as §1, §2, §3, §4, §5, §6, §7

| SMILES | activity at 10 µM (OVCAR-4) [%] | activity at 10 µM (COLO 205) [%] | activity at 10 µM (SK-MEL-28) [%] | activity at 10 µM (MDA-MB-468) [%] | activity at 10 µM (SW-620) [%] | activity at 10 µM (HCC-2998) [%] | activity at 10 µM (K-562) [%] | activity at 10 µM (MALME-3M) [%] | activity at 10 µM (BT-549) [%] | activity at 10 µM (SNB-75) [%] | activity at 10 µM (HL-60(TB)) [%] | activity at 10 µM (SN12C) [%] | activity at 10 µM (SF-539) [%] | activity at 10 µM (UO-31) [%] | activity at 10 µM (U251) [%] | activity at 10 µM (CCRF-CEM) [%] | activity at 10 µM (UACC-257) [%] | activity at 10 µM (MCF7) [%] | activity at 10 µM (KM12) [%] | activity at 10 µM (HCT-116) [%] | also measured |
| --- | --- | --- | --- | --- | --- | --- | --- | --- | --- | --- | --- | --- | --- | --- | --- | --- | --- | --- | --- | --- | --- |
| O=c1cc(-c2ccccc2)oc2cc(OCCCC[P+](c3ccccc3)(c3ccccc3)c3ccccc3)cc(O)c12 [3a] | -69.1 | -56.3 | -98.5 | -84.9 | -81.7 | -93.1 | -24.1 | -88 | -83 | -80.7 | -51.5 | -49.5 | -95.7 | -97.1 | -57.4 | -75.9 | -91 | -79.1 | -85.2 | -58.1 | – |
| Cc1ccc([P+](CCCCOc2cc(O)c3c(=O)cc(-c4ccccc4)oc3c2)(c2ccc(C)cc2)c2ccc(C)cc2)cc1 [3b] | -73.1 | -64.5 | -85.3 | -87 | -68.5 | -88.7 | -4.21 | -57.9 | -19 | -78.4 | -60.4 | -84.4 | -80.5 | -82.5 | -50 | -70.5 | -72.2 | -74.8 | -75.5 | 1.29 | activity at 10 µM (RXF 393): -74.8% |
| COc1ccc([P+](CCCCOc2cc(O)c3c(=O)cc(-c4ccccc4)oc3c2)(c2ccc(OC)cc2)c2ccc(OC)cc2)cc1 [3c] | -74.3 | -68.3 | -44.5 | -77.4 | -34.8 | -72.9 | -39.8 | -45 | -82.6 | -51.1 | -31.2 | -59 | -66.9 | -89.9 | -92.6 | -71.7 | -94.7 | -56.8 | -86.2 | -95.5 | activity at 10 µM (RXF 393): -74.4% |
| O=c1cc(-c2ccccc2)oc2cc(OCCCC[P+](c3ccc(F)cc3)(c3ccc(F)cc3)c3ccc(F)cc3)cc(O)c12 [3d] | -48.1 | -68.4 | -92 | -85.7 | -67.5 | -89 | -17.6 | -82.4 | -76 | -78 | -46.9 | -82.1 | -89.6 | -86.9 | -40.7 | -55.9 | -82.1 | -84.8 | -81.6 | -66.6 | activity at 10 µM (RXF 393): -84% |
| Cc1ccccc1[P+](CCCCOc1cc(O)c2c(=O)cc(-c3ccccc3)oc2c1)(c1ccccc1C)c1ccccc1C [3g] | -98.7 | -97 | -98.4 | -99.4 | -96.4 | -98.2 | -97.5 | -98.5 | -98.1 | -99 | -97.4 | -97 | -97.7 | – | -97 | -96.5 | -99.3 | -95.4 | -95.8 | -94.5 | activity at 10 µM (RXF 393): -98.7% |
